Values joined by “and” are separate entries in the source; they are usually repeats but may differ in a detail not shown here. Equal values may be shown once. Inconclusive results and toxic doses are left out.
Tested on: BDF1 mice, L1210 leukemia sc, survival T/C
Test: NCI In Vivo Anticancer Drug Screen. Data for tumor model L1210 Leukemia (subcutaneous) in B6D2F1 (BDF1) mice
Details: endpoint: median survival time, higher = longer survival
How it was run: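 Antitumor activity is assessed in mice with transplanted tumors by comparing the treated group (T) with the vehicle control group (C).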

[1] = dose: 5.0 mg/kg/injection, schedule: Q01DX Z (sc), vehicle: methylcellulose (MC)
[2] = dose: 108.0 mg/kg/injection, schedule: Q01DX Z (sc), vehicle: methylcellulose (MC)
[3] = dose: 180.0 mg/kg/injection, schedule: Q01DX Z (sc), vehicle: methylcellulose (MC)
[4] = dose: 300.0 mg/kg/injection, schedule: Q01DX Z (sc), vehicle: methylcellulose (MC)
[5] = dose: 500.0 mg/kg/injection, schedule: Q01DX Z (sc), vehicle: methylcellulose (MC)
[6] = dose: 833.0 mg/kg/injection, schedule: Q01DX Z (sc), vehicle: methylcellulose (MC)

What does the source list for `CSc1ncnc2c1ncn2C1OC(CO)C(O)C1O` (stereo not drawn)?
T/C (dose: 5.0 mg/kg/injection, schedule: Q#A X Z (sc), vehicle: water): 100 % of control; T/C (dose: 8.4 mg/kg/injection, schedule: Q#A X Z (sc), vehicle: water): 100 % of control; T/C (dose: 14.0 mg/kg/injection, schedule: Q01DX Z (sc), vehicle: water): 100 % of control; T/C (dose: 14.0 mg/kg/injection, schedule: Q#A X Z (sc), vehicle: water): 105 % of control; T/C (dose: 23.0 mg/kg/injection, schedule: Q01DX Z (sc), vehicle: water): 100 % of control and 105 % of control; T/C (dose: 23.0 mg/kg/injection, schedule: Q02DX Z (sc), vehicle: water): 100 % of control; T/C (dose: 23.0 mg/kg/injection, schedule: Q#A X Z (sc), vehicle: water): 111 % of control; T/C (dose: 39.0 mg/kg/injection, schedule: Q01DX Z (sc), vehicle: water): 111 % of control; T/C (dose: 39.0 mg/kg/injection, schedule: Q02DX Z (sc), vehicle: water): 105 % of control; T/C (dose: 39.0 mg/kg/injection, schedule: Q## X Z (sc), vehicle: water): 111 % of control; T/C (dose: 39.0 mg/kg/injection, schedule: Q#A X Z (sc), vehicle: water): 111 % of control; T/C (dose: 65.0 mg/kg/injection, schedule: Q01DX001 (sc), vehicle: water): 100 % of control; T/C (dose: 65.0 mg/kg/injection, schedule: Q01DX Z (sc), vehicle: water): 111 % of control; T/C (dose: 65.0 mg/kg/injection, schedule: Q02DX Z (sc), vehicle: water): 100 % of control; T/C (dose: 65.0 mg/kg/injection, schedule: Q## X Z (sc), vehicle: water): 105 % of control; T/C (dose: 108.0 mg/kg/injection, schedule: Q01DX001 (sc), vehicle: water): 111 % of control; T/C (dose: 108.0 mg/kg/injection, schedule: Q01DX Z (sc), vehicle: water): 122 % of control; T/C (dose: 108.0 mg/kg/injection, schedule: Q02DX Z (sc), vehicle: water): 111 % of control; T/C (dose: 108.0 mg/kg/injection, schedule: Q## X Z (sc), vehicle: water): 111 % of control; T/C (dose: 180.0 mg/kg/injection, schedule: Q01DX001 (sc), vehicle: water): 122 % of control; T/C (dose: 180.0 mg/kg/injection, schedule: Q02DX Z (sc), vehicle: water): 105 % of control; T/C (dose: 180.0 mg/kg/injection, schedule: Q## X Z (sc), vehicle: water): 116 % of control; T/C (dose: 300.0 mg/kg/injection, schedule: Q01DX001 (sc), vehicle: water): 122 % of control; T/C (dose: 300.0 mg/kg/injection, schedule: Q## X Z (sc), vehicle: water): 122 % of control

For `CN(C)c1ccc(/C=C/c2ccc3ccccc3[n+]2C)cc1`, which T/C (dose: 0.65 mg/kg/injection, schedule: Q01DX Z (sc), vehicle: methylcellulose (MC)) is on record?
Its T/C is 100 % of control.

What about the T/C (dose: 1.08 mg/kg/injection, schedule: Q01DX Z (sc), vehicle: methylcellulose (MC)) of the same compound?
The T/C was 100 % of control.

And the T/C (dose: 1.8 mg/kg/injection, schedule: Q01DX Z (sc), vehicle: methylcellulose (MC))?
The T/C was 104 % of control.

And the T/C (dose: 3.0 mg/kg/injection, schedule: Q01DX Z (sc), vehicle: methylcellulose (MC))?
The T/C was 104 % of control.

What about the T/C [1] of the same compound?
The T/C was 104 % of control.

Which results are given for `C=CC(COC(C)=O)N1CC1` (stereo not drawn)?
T/C (dose: 4.7 mg/kg/injection, schedule: Q01DX Z (sc), vehicle: saline): 100 % of control; T/C (dose: 7.8 mg/kg/injection, schedule: Q01DX Z (sc), vehicle: saline): 100 % of control; T/C (dose: 13.0 mg/kg/injection, schedule: Q01DX Z (sc), vehicle: saline): 100 % of control; T/C (dose: 36.0 mg/kg/injection, schedule: Q01DX Z (sc), vehicle: saline): 100 % of control; T/C (dose: 60.0 mg/kg/injection, schedule: Q01DX Z (sc), vehicle: saline): 100 % of control

Which results are given for `CC(CNC(=O)CCOS(C)(=O)=O)NC(=O)CCOS(C)(=O)=O` (stereo not drawn)?
T/C [2]: 105 % of control; T/C (dose: 180.0 mg/kg/injection, schedule: Q01DX Z (sc), vehicle: carboxymethylcellulose (CMC)): 175 % of control; T/C [3]: 115 % of control; T/C (dose: 300.0 mg/kg/injection, schedule: Q01DX Z (sc), vehicle: carboxymethylcellulose (CMC)): 150 % of control; T/C [4]: 120 % of control; T/C [5]: 120 % of control; T/C (dose: 833.0 mg/kg/injection, schedule: Q01DX Z (sc), vehicle: carboxymethylcellulose (CMC)): 110 % of control; T/C [6]: 110 % of control

With `CC1CC(C)(O)CC(C(O)CC2CC(=O)NC(=O)C2)C1=O` (stereo not drawn) as the compound, how does the T/C (dose: 0.14 mg/kg/injection, schedule: Q01DX Z (sc), vehicle: saline) read?
Its T/C is 108 % of control.

What about the T/C (dose: 0.24 mg/kg/injection, schedule: Q01DX Z (sc), vehicle: saline) of the same compound?
The T/C was 120 % of control.

What about the T/C (dose: 0.39 mg/kg/injection, schedule: Q02DX Z (sc), vehicle: saline) of the same compound?
Its T/C is 120 % of control.

What about the T/C (dose: 0.4 mg/kg/injection, schedule: Q01DX Z (sc), vehicle: saline) of the same compound?
Its T/C is 116 % of control.

What about the T/C (dose: 0.65 mg/kg/injection, schedule: Q02DX Z (sc), vehicle: saline) of the same compound?
The T/C was 120 % of control.

What about the T/C (dose: 0.67 mg/kg/injection, schedule: Q01DX Z (sc), vehicle: saline) of the same compound?
Its T/C is 116 % of control.

And the T/C (dose: 1.08 mg/kg/injection, schedule: Q01DX Z (sc), vehicle: saline)?
The T/C was 120 % of control.

And the T/C (dose: 1.08 mg/kg/injection, schedule: Q02DX Z (sc), vehicle: saline)?
Its T/C is 120 % of control.

And the T/C (dose: 1.08 mg/kg/injection, schedule: Q## X Z (sc), vehicle: saline)?
The T/C was 110 % of control.

And the T/C (dose: 1.12 mg/kg/injection, schedule: Q01DX Z (sc), vehicle: saline)?
Its T/C is 104 % of control.

What about the T/C (dose: 1.8 mg/kg/injection, schedule: Q01DX Z (sc), vehicle: saline) of the same compound?
Its T/C is 120 % of control.

And the T/C (dose: 1.8 mg/kg/injection, schedule: Q02DX Z (sc), vehicle: saline)?
Its T/C is 120 % of control.

What about the T/C (dose: 1.8 mg/kg/injection, schedule: Q## X Z (sc), vehicle: saline) of the same compound?
The T/C was 110 % of control.

What about the T/C (dose: 1.87 mg/kg/injection, schedule: Q01DX Z (sc), vehicle: saline) of the same compound?
Its T/C is 100 % of control.

And the T/C (dose: 3.0 mg/kg/injection, schedule: Q01DX001 (sc), vehicle: saline)?
Its T/C is 120 % of control.

And the T/C (dose: 3.0 mg/kg/injection, schedule: Q01DX Z (sc), vehicle: saline)?
Its T/C is 110 % of control.

And the T/C (dose: 3.0 mg/kg/injection, schedule: Q## X Z (sc), vehicle: saline)?
The T/C was 115 % of control.

What about the T/C (dose: 3.11 mg/kg/injection, schedule: Q01DX Z (sc), vehicle: saline) of the same compound?
The T/C was 100 % of control.

And the T/C (dose: 5.0 mg/kg/injection, schedule: Q01DX001 (sc), vehicle: saline)?
Its T/C is 120 % of control.

What about the T/C (dose: 5.0 mg/kg/injection, schedule: Q01DX Z (sc), vehicle: saline) of the same compound?
Its T/C is 100 % of control.

And the T/C (dose: 5.0 mg/kg/injection, schedule: Q## X Z (sc), vehicle: saline)?
Its T/C is 115 % of control.

What about the T/C (dose: 8.4 mg/kg/injection, schedule: Q02DX Z (sc), vehicle: saline) of the same compound?
Its T/C is 110 % of control.

And the T/C (dose: 8.4 mg/kg/injection, schedule: Q## X Z (sc), vehicle: saline)?
The T/C was 120 % of control.

What about the T/C (dose: 14.0 mg/kg/injection, schedule: Q02DX Z (sc), vehicle: saline) of the same compound?
The T/C was 100 % of control.

What about the T/C (dose: 14.0 mg/kg/injection, schedule: Q## X Z (sc), vehicle: saline) of the same compound?
The T/C was 120 % of control.

Which T/C (dose: 65.0 mg/kg/injection, schedule: Q01DX Z (sc), vehicle: methylcellulose (MC)) does the source give for `Cn1c(N)nc2nc[nH]c2c1=S` here?
The T/C was 100 % of control.

What about the T/C [2] of the same compound?
The T/C was 100 % of control.

What about the T/C [3] of the same compound?
The T/C was 100 % of control and 105 % of control.

And the T/C [4]?
The T/C was 100 % of control.

And the T/C [5]?
The T/C was 100 % of control and 105 % of control.

And the T/C [6]?
The T/C was 110 % of control.

How did the T/C (dose: 3.0 mg/kg/injection, schedule: Q01DX Z (oral), vehicle: methylcellulose (MC)) turn out when `Cn1cnc([N+](=O)[O-])c1Sc1ncnc2nc[nH]c12` was run?
The T/C was 100 % of control.

What about the T/C [1] of the same compound?
The T/C was 100 % of control.

And the T/C (dose: 8.4 mg/kg/injection, schedule: Q01DX Z (sc), vehicle: methylcellulose (MC))?
The T/C was 100 % of control.

And the T/C (dose: 14.0 mg/kg/injection, schedule: Q01DX Z (sc), vehicle: methylcellulose (MC))?
The T/C was 100 % of control.

What about the T/C (dose: 23.0 mg/kg/injection, schedule: Q01DX Z (oral), vehicle: methylcellulose (MC)) of the same compound?
Its T/C is 100 % of control.

What about the T/C (dose: 28.0 mg/kg/injection, schedule: Q01DX Z (sc), vehicle: methylcellulose (MC)) of the same compound?
Its T/C is 110 % of control.

What about the T/C (dose: 39.0 mg/kg/injection, schedule: Q01DX Z (oral), vehicle: methylcellulose (MC)) of the same compound?
The T/C was 100 % of control.

What about the T/C (dose: 39.0 mg/kg/injection, schedule: Q01DX Z (sc), vehicle: methylcellulose (MC)) of the same compound?
Its T/C is 100 % of control.

What about the T/C (dose: 47.0 mg/kg/injection, schedule: Q01DX Z (sc), vehicle: methylcellulose (MC)) of the same compound?
Its T/C is 115 % of control.

And the T/C (dose: 65.0 mg/kg/injection, schedule: Q01DX Z (oral), vehicle: methylcellulose (MC))?
The T/C was 100 % of control.

And the T/C (dose: 78.0 mg/kg/injection, schedule: Q01DX Z (sc), vehicle: methylcellulose (MC))?
The T/C was 120 % of control.

What about the T/C (dose: 360.0 mg/kg/injection, schedule: Q01DX Z (sc), vehicle: methylcellulose (MC)) of the same compound?
Its T/C is 110 % of control.

And the T/C (dose: 500.0 mg/kg/injection, schedule: Q01DX Z (oral), vehicle: methylcellulose (MC))?
The T/C was 155 % of control.

And the T/C [5]?
Its T/C is 122 % of control.

What about the T/C (dose: 600.0 mg/kg/injection, schedule: Q01DX Z (sc), vehicle: methylcellulose (MC)) of the same compound?
Its T/C is 105 % of control.

From PubChem BioAssay AID250 (DTP/NCI, 2004)
